{
  "source": "patent US6653089B2",
  "about": "“Differential treatment of selected parts of a single cell with different fluid components” (President and Fellows of Harvard College, priority 2000, dated 2003)",
  "key": {"[1]": {"system": "BCE cells (actin filaments)", "test": "Partial treatment of single BCE cells with a membrane-permeable actin disrupting drug in a two-component laminar flow stream", "format": "cell-based, Bovine", "settings": "for actin cytoskeleton after treatment (phalloidin Alexa 594 stain): about 10 min", "procedure": "(§1) Bovine adrenal capillary endothelial (BCE) cells were cultured and harvested as described in D. E. Ingber & J. Folkman, J. Cell Biol., Vol. 109, pp. 317-330, 1989, incorporated herein by reference. In brief, cells were cultured under 10% CO2 on Petri dishes (Falcon) coated with gelatin in DMEM (GIBCO) containing 10% calf serum (CS), 2 mM glutamine, 100 μg/ml streptomycin, 100 μg/ml penicillin, and 1 ng/ml basic fibroblast growth factor (bFGF). Cells were dissociated from culture plates with trypsin/EDTA and washed in DMEM containing 1% wt/vol BSA (BSA/DMEM). These cells were suspended in chemically defined medium (10 μg/ml high density lipoprotein/5 μg/ml transferrin/5 ng/ml bFGF in BSA/DMEM) as described in D. E. Ingber, Proc. Natl. Acad. Sci. USA, Vol. 87, pp. 3579-3583 (1990), incorporated herein by reference, introduced into capillary networks (pretreated with 50 μg/ml fibronectin for 1 hr) from the inlet wells, and incubated in 10% CO2 at 37° C. for 4-6 hr to permit attachment and spreading upon the glass cover slip forming the bottom of the microchannel network. After the above incubation to allow for binding and attachment, non-adherent cells were removed by washing each of the flow channels with media (1% wt/vol. BSA/DMEM) for about 3 min. at a maximum bulk flow velocity of about 0.6 cm/s (Re<1).\nDevice fabrication and cell culture and attachment of BCE cells was performed as described above in Example 1. Creation and maintenance of flow in the channels and selection and observation of a BCE cell positioned straddling the interface of two components of the flow stream established in the main flow channel was performed in a similar fashion as described previously in Example 1.\nIn the present example, prior to selective treatment of a portion of a single BCE cell with a membrane-permeable actin disrupting drug, the BCE cells attached to the microfluidic network were uniformly exposed to media containing Mitotracker Green™ FM mitochondrial stain, as described in Example 2, in order to uniformly stain the mitochondria of each of the BCE cells in the microfluidic channels. Subsequent to mitochondrial staining, partial cell treatment with the actin disrupting drug was accomplished by filling right-most well 316 (see FIG. 3A) of the microfluidic channel network with media containing latrunculin A (1 μM in DMEM/10% CS). Similar media, except not including the latrunculin A, was added to inlet wells 312 and 314, and flow was maintained during the experiment as described previously in Example 1. […]"}, "[2]": {"system": "BCE cells", "test": "Intracellular gradient formation of a membrane permeable nucleic acid binding dye in a single BCE cell", "format": "cell-based, Bovine", "settings": "60 μM Syto 9 in DMEM/10% CS over one portion of the cell, dye-free media over the other", "procedure": "as §1, with “After the above incubation to allow for binding and attachment, non-adherent cells were removed by washing each of the flow channels with media (1% wt/vol. BSA/DMEM) for about 3 min. at a maximum bulk flow velocity of about 0.6 cm/s (Re<1).” left out\nThe flowing streams and attached BCEs were visualized utilizing a fluorescence inverted microscope, as illustrated in FIG. 3B. […]"}},
  "data": [
    {"compound": "C/C1=C/C(=O)O[C@@H]2C[C@@H](CC[C@H](C)/C=C\\C=C\\CC1)O[C@@](O)([C@@H]1CSC(=O)N1)C2", "note": "[latrunculin A]", "values": [
      {"measurement": "displacement of mitochondria and nucleus on local actin disruption", "setting": "[1]; center cell, latrunculin A supplied to right-hand portion only, peripheral cell shape relatively unchanged", "result": "caused the mitochondria and nucleus to shift towards the left"},
      {"measurement": "actin cytoskeleton after treatment (phalloidin Alexa 594 stain)", "setting": "[1]; center cell, only right-hand part exposed to latrunculin A-containing media, 1 μM", "result": "greatest degree of actin disruption evident in its treated, right side portion"},
      {"measurement": "positions of the mitochondria (Mitotracker Green FM stained)", "setting": "[1]; center cell, right-hand part exposed to 1 μM latrunculin A for 10 min", "result": "have shifted towards the left-hand (untreated) part of the cell"},
      {"measurement": "actin cytoskeleton after treatment (phalloidin Alexa 594 stain)", "setting": "[1]; rightmost cell fully exposed to latrunculin A-containing media, 1 μM in DMEM/10% CS", "result": "a substantial portion of the actin cytoskeleton appears, in the rightmost cell, to be depolymerized"}
    ]},
    {"compound": "Syto 9", "values": [
      {"measurement": "time until intracellular diffusion reached approximately its steady state value", "setting": "[2]", "result": "about 10 minutes"}
    ]}
  ]
}
